PubChem BioAssay (NCI)
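Exposure lasted 48 hours, with cells grown in 96-well plates and compounds tested at five concentrations. GI50: concentration for 50% inhibition of growth. TGI denotes the concentration required for complete inhibition of growth.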

Tests used:
Test in all cases: NCI tumour cell line growth inhibition, 48 h
[1] = system: 786-0 renal
[2] = system: A549 NSCLC
[3] = system: ACHN renal
[4] = system: BT-549 breast
[5] = system: CAKI-1 renal
[6] = system: COLO 205 colon
[7] = system: HCT-116 colon
[8] = system: HCT-15 colon
[9] = system: HL-60(TB) leukemia
[10] = system: HOP-62 NSCLC
[11] = system: HOP-92 NSCLC
[12] = system: HT29 colon
[13] = system: IGROV1 ovarian
[14] = system: K-562 leukemia
[15] = system: KM12 colon
[16] = system: LOX IMVI melanoma
[17] = system: M14 melanoma
[18] = system: MALME-3M melanoma
[19] = system: MDA-MB-231 breast
[20] = system: MDA-MB-435
[21] = system: MOLT-4 leukemia
[22] = system: NCI-H23 lung
[23] = system: NCI-H460 lung
[24] = system: NCI-H522 lung
[25] = system: NCI/ADR-RES ovarian
[26] = system: OVCAR-3 ovarian
[27] = system: OVCAR-4 ovarian
[28] = system: OVCAR-8 ovarian
[29] = system: PC-3 prostate
[30] = system: RPMI-8226 leukemia
[31] = system: RXF 393 renal
[32] = system: SF-295 CNS
[33] = system: SK-MEL-2 melanoma
[34] = system: SK-MEL-28 melanoma
[35] = system: SK-MEL-5 melanoma
[36] = system: SK-OV-3 ovarian
[37] = system: SN12C renal
[38] = system: SNB-19 CNS
[39] = system: SNB-75 CNS
[40] = system: SR leukemia
[41] = system: SW-620 colon
[42] = system: T-47D breast
[43] = system: TK-10 renal
[44] = system: U251 CNS
[45] = system: UACC-257 melanoma
[46] = system: UACC-62 melanoma
[47] = system: UO-31 renal

## Nc1ccccc1C#CC#Cc1ccccc1N
[1]
  GI50: 13.2 µM
  TGI: 27 µM
[2]
  GI50: 13.8 µM
  TGI: 87.4 µM
[3]
  GI50: 10.6 µM
  TGI: 22.9 µM
[4]
  GI50: 20.5 µM
  TGI: 49 µM
[5]
  GI50: 1.36 µM
  TGI: 18.7 µM
[6]
  GI50: 22.5 µM
  TGI: 75.7 µM
[7]
  GI50: 6.02 µM
  TGI: 24.8 µM
[8]
  GI50: 11.4 µM
  TGI: 25.5 µM
[9]
  GI50: 3.97 µM
  TGI: > 100 µM
[10]
  GI50: 15.9 µM
  TGI: 29.9 µM
[11]
  GI50: 1.37 µM
  TGI: 96.7 µM
[12]
  GI50: 20.6 µM
  TGI: > 100 µM
[13]
  GI50: 18.6 µM
  TGI: 86.2 µM
[14]
  GI50: 5.78 µM
  TGI: > 100 µM
[15]
  GI50: 8.46 µM
  TGI: 36.2 µM
[16]
  GI50: 6.78 µM
  TGI: 19.4 µM
[17]
  GI50: 7.34 µM
  TGI: 65.8 µM
[18]
  GI50: 35.2 µM
  TGI: 61.3 µM
[19]
  GI50: 10.9 µM
  TGI: 24.5 µM
[20]
  GI50: 4.6 µM
  TGI: 31.3 µM
[21]
  GI50: 16.3 µM
  TGI: > 100 µM
[22]
  GI50: 4.04 µM
  TGI: 22 µM
[23]
  GI50: 11.8 µM
  TGI: 28.4 µM
[24]
  GI50: 11.5 µM
  TGI: 38.6 µM
[25]
  GI50: 4.63 µM
  TGI: 29.7 µM
[26]
  GI50: 2.85 µM
  TGI: 36.3 µM
[27]
  GI50: 23.7 µM
  TGI: > 100 µM
[28]
  GI50: 28.7 µM
  TGI: > 100 µM
[29]
  GI50: 23.1 µM
  TGI: > 100 µM
[30]
  GI50: 8.08 µM
  TGI: > 100 µM
[31]
  GI50: 25.6 µM
  TGI: 67.7 µM
[32]
  GI50: 2.76 µM
  TGI: > 100 µM
[33]
  GI50: 21.7 µM
  TGI: 51.7 µM
[34]
  GI50: 48 µM
  TGI: > 100 µM
[35]
  GI50: 4.36 µM
  TGI: 17.9 µM
[36]
  GI50: 58 µM
  TGI: > 100 µM
[37]
  GI50: 14.7 µM
  TGI: 31.4 µM
[38]
  GI50: > 100 µM
  TGI: > 100 µM
[39]
  GI50: 32.3 µM
  TGI: > 100 µM
[40]
  TGI: 69.8 µM
[41]
  GI50: 15.7 µM
  TGI: 35.3 µM
[42]
  GI50: > 100 µM
  TGI: > 100 µM
[43]
  GI50: 12.5 µM
  TGI: 32.9 µM
[44]
  GI50: 8.53 µM
  TGI: 21 µM
[45]
  GI50: 4.56 µM
  TGI: 24.5 µM
[46]
  GI50: 11.8 µM
  TGI: 25.3 µM
[47]
  GI50: 8 µM
  TGI: > 100 µM
